# Reference: patent US11034650B2, “Compounds useful for treating a Mannheimia haemolytica or Histophilus somni infection” (Intervet Inc., priority 2016, dated 2021)
# Legend:
# Format in all cases: cell-based
# [1] = system: Mannheimia haemolytica MH 13065 (XB0446-6003.9, BRD field isolate); test: MIC, broth-microdilution (CLSI VET01-A4), strain MH 13065; settings: Mannheimia haemolytica strain MH 13065, broth-microdilution; unit assumed
# Method in brief: (§1)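 Read-out is unaided visual inspection for turbidity. The minimum inhibitory concentration is the lowest tested level without detectable growth across a two-fold compound series.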
# [2] = system: Pasteurella multocida PM 6267 (P 2225 (L386), reference strain, mouse infection strain); test: MIC, broth-microdilution (CLSI VET01-A4), strain PM 6267; settings: Pasteurella multocida strain PM 6267, broth-microdilution; unit assumed
# Method in brief: as §1
# [3] = system: Pasteurella multocida PM 12080 (IV102277-0093, BRD field isolate); test: MIC, broth-microdilution (CLSI VET01-A4), strain PM 12080; settings: Pasteurella multocida strain PM 12080, broth-microdilution; unit assumed
# Method in brief: as §1
# [4] = system: Pasteurella multocida PM 6391 (ATCC 43137, reference strain); test: MIC, broth-microdilution (CLSI VET01-A4), strain PM 6391; settings: Pasteurella multocida strain PM 6391, broth-microdilution; unit assumed
# Method in brief: as §1
# [5] = system: Mannheimia haemolytica MH 10720 (154, BRD field isolate); test: MIC, broth-microdilution (CLSI VET01-A4), strain MH 10720; settings: Mannheimia haemolytica strain MH 10720, broth-microdilution; unit assumed
# Method in brief: as §1
# [6] = system: Mannheimia haemolytica MH 13093 (XB0472-6014.1, BRD field isolate); test: MIC, broth-microdilution (CLSI VET01-A4), strain MH 13093; settings: Mannheimia haemolytica strain MH 13093, broth-microdilution; unit assumed
# Method in brief: as §1
# [7] = system: Mannheimia haemolytica MH 6374 (ATCC 33396, reference strain); test: MIC, broth-microdilution (CLSI VET01-A4), strain MH 6374; settings: Mannheimia haemolytica strain MH 6374, broth-microdilution; unit assumed
# Method in brief: as §1
# [8] = system: Mannheimia haemolytica MH 6357 (M7/2, reference strain, cattle infection strain); test: MIC, broth-microdilution (CLSI VET01-A4), strain MH 6357; settings: Mannheimia haemolytica strain MH 6357, broth-microdilution; unit assumed
# Method in brief: as §1
# [9] = system: Mannheimia haemolytica MH 12587 (1071, BRD field isolate, macrolide-resistance: erm+, E+); test: MIC, broth-microdilution (CLSI VET01-A4), strain MH 12587; settings: Mannheimia haemolytica strain MH 12587, broth-microdilution; unit assumed
# Method in brief: as §1
# [10] = system: Pasteurella multocida PM 10775 (080130003051, BRD field isolate); test: MIC, broth-microdilution (CLSI VET01-A4), strain PM 10775; settings: Pasteurella multocida strain PM 10775, broth-microdilution; unit assumed
# Method in brief: as §1
MIC PM 6267 [2] [µg/mL],MIC PM 12080 [3] [µg/mL],MIC PM 6391 [4] [µg/mL],MIC PM 10775 [10] [µg/mL],Compound,MIC MH 13065 [1] [µg/mL],MIC MH 10720 [5] [µg/mL],MIC MH 13093 [6] [µg/mL],MIC MH 6374 [7] [µg/mL],MIC MH 6357 [8] [µg/mL],MIC MH 12587 [9] [µg/mL]
≤ 0.1,0.2,0.4,≤ 0.1,CCCNCc1ccc(C#Cc2ccc(C(=O)N[C@H](C(=O)NO)C(C)C)cc2)cc1 [Compound 206],3.1,0.8,6.3,3.1,3.1,6.3
0.2,0.8,0.8,≤ 0.1,CNCc1ccc(C#Cc2ccc(C(=O)N[C@H](C(=O)NO)C(C)C)cc2)cc1 [Compound 207],6.3,3.1,12.5,12.5,12.5,12.5
0.2,0.2,0.4,≤ 0.1,CC(C)[C@H](NC(=O)c1ccc(C#Cc2ccc(CNC3CCCCC3)cc2)cc1)C(=O)NO [Compound 208],12.5,3.1,12.5,12.5,12.5,25
≤ 0.1,0.2,0.4,≤ 0.1,CC(C)[C@H](NC(=O)c1ccc(C#Cc2ccc(CNC3CCCC3)cc2)cc1)C(=O)NO [Compound 209],6.3,1.6,12.5,6.3,3.1,12.5
≤ 0.1,≤ 0.1,0.2,≤ 0.1,CC(C)[C@H](NC(=O)c1ccc(C#Cc2ccc(CNC3CCC3)cc2)cc1)C(=O)NO [Compound 210],1.6,0.8,3.1,3.1,1.6,6.3
≤ 0.1,≤ 0.1,0.2,≤ 0.1,CC(C)[C@H](NC(=O)c1ccc(C#Cc2ccc(CN3CCN(C)CC3)cc2)cc1)C(=O)NO [Compound 211],6.3,1.6,6.3,12.5,3.1,12.5
0.2,0.2,0.4,≤ 0.1,CC(C)[C@H](NC(=O)c1ccc(C#Cc2ccc(CN3CCCC3)cc2)cc1)C(=O)NO [Compound 212],3.1,0.8,12.5,6.3,3.1,12.5
≤ 0.1,0.2,0.4,≤ 0.1,O=C(N[C@@H](CO)C(=O)NO)c1ccc(C#Cc2ccc(CNCc3nccs3)cc2)cc1 [Compound 213],1.6,0.8,3.1,1.6,1.6,3.1
0.2,0.4,0.4,≤ 0.1,O=C(N[C@@H](CO)C(=O)NO)c1ccc(C#Cc2ccc(CNCc3ccnc(Cl)c3)cc2)cc1 [Compound 214],3.1,0.8,3.1,1.6,1.6,6.3
≤ 0.1,≤ 0.1,≤ 0.1,≤ 0.1,O=C(N[C@@H](CO)C(=O)NO)c1ccc(C#Cc2ccc(CN3CCCOCC3)cc2)cc1 [Compound 215],3.1,0.8,6.3,3.1,3.1,6.3
≤ 0.1,0.2,0.2,≤ 0.1,N#CCNCc1ccc(C#Cc2ccc(C(=O)N[C@@H](CO)C(=O)NO)cc2)cc1 [Compound 216],1.6,0.8,3.1,3.1,1.6,3.1
